Source: US20120270908A1, “SUBSTITUTED 3 -HYDROZYPYRIDINES AND PHARMACEUTICAL COMPOSITIONS THEREOF” (priority 2007, published 2012)

Columns and labels:
[1] = system: streptozotocin-induced male albino Wistar rats; test: Streptozotocin-induced decompensated insulin resistance in rats: fasting serum glucose, plasma insulin, plasma triglycerides; format: in vivo; details: mean±SEM (n=10); for Glucose: fasting serum; for Insulin / Triglycerides: plasma
Method: The rats with glucose levels more than 14.0 mmol/1 were used in the experiment one week after the streptozotocin injection.
Streptozotocin-induced rats were assigned to three groups: a control rats (n=10) and experimental rats (n=20). Control rats received daily i.p. injections of saline for 7 days. Experimental rats received daily i.p. injections of 10 mg/kg 2-Ethyl-4,6-dimethyl-3-hydroxypyridine, succinic acid salt (1:1); or 2-Ethyl-4,5,6-trimethyl-3-hydroxypyridine, succinic acid salt (1:1) for 7 days. Biochemical parameters were determined just before start of the treatment and on 14 day from the start of the treatment.

insulin receptor = biological target: T1, insulin receptor (Homo sapiens, UniProt P06213); test: Activation of insulin receptor in HepG2 cells: phosphorylation of tyrosine residues 1162/1163, PhosphoDetect insulin receptor ELISA kit; format: cell-based; details: 10 min, PBS with 5 mM glucose, percentage of the response to 100 nM insulin, mean±SEM (n=8)
T1 construct: endogenous in cells; host or cells: HepG2 (human hepatoma)
T1 sequence (P06213 28-758 limits assumed): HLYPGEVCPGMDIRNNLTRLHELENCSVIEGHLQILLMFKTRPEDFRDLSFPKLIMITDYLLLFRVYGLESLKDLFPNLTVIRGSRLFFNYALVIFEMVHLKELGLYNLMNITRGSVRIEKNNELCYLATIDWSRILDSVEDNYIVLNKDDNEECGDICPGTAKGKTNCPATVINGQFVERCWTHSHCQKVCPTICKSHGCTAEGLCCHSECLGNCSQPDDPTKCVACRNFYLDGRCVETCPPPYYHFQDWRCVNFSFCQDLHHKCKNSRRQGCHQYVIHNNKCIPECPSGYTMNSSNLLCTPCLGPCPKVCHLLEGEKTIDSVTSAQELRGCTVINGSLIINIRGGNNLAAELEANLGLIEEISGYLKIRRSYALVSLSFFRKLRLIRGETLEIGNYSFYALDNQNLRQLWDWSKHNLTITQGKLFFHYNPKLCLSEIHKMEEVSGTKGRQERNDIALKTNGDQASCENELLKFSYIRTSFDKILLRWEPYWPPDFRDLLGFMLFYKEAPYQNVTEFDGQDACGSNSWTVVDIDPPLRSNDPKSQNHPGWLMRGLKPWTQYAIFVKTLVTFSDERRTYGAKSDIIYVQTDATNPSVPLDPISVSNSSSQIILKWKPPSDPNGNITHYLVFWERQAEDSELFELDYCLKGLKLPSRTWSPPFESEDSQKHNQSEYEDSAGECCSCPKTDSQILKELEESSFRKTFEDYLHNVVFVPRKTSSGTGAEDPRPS
T1 sequence (P06213 763-1382 limits assumed): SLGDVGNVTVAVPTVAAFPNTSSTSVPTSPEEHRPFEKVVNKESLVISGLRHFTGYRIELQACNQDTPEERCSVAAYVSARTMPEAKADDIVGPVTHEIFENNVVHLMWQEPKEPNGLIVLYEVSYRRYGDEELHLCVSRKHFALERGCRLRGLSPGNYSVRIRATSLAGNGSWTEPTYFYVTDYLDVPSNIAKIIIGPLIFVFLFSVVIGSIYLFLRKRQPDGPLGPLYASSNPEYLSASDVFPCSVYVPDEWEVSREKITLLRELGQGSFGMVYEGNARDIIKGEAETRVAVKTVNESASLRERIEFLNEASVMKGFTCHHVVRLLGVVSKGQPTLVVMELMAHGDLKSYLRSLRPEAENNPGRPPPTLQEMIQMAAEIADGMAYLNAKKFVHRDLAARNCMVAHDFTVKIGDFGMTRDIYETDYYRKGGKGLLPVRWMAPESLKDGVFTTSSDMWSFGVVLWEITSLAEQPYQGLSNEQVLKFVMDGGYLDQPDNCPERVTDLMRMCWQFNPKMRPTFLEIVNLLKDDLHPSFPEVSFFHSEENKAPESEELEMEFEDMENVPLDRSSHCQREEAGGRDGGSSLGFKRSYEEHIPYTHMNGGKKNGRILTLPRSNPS
Excerpt: It is generally recognized that the phosphorylation increase activity of receptor to about 200-fold as compared to unphosphorylated one.

[2] = 14 Day from start, 10 mg/kg i.p. daily for 7 days
[3] = before treatment (baseline of the group)

| Structure (SMILES) | Glucose [1, 2] [mmol/L] | Glucose [1, 3] [mmol/L] | Insulin [1, 2] [ng/mL] | Triglycerides [1, 2] [mmol/L] | Insulin [1, 3] [ng/mL] | Triglycerides [1, 3] [mmol/L] | Insulin receptor phosphorylation, % (insulin receptor; compound 50 μM alone) [%] | Insulin receptor phosphorylation, % (insulin receptor; insulin 5 nM + compound 50 μM) [%] |
| --- | --- | --- | --- | --- | --- | --- | --- | --- |
| CCc1nc(C)c(C)c(C)c1O.O=C(O)CCC(=O)O [2-Ethyl-4,5,6-trimethyl-3-hydroxypyridine, succinic acid salt (1:1)] | 7.3 ± 1.1 | 16.0 ± 2.6 | 2.3 ± 0.5 | 1.6 ± 0.3 | 11.4 ± 2.0 | 3.1 ± 0.2 | 13 ± 2 | 62 ± 8 |
| CCc1nc(C)cc(C)c1O.O=C(O)CCC(=O)O [2-Ethyl-4,6-dimethyl-3-hydroxypyridine, succinic acid salt (1:1)] | 8.5 ± 1.3 | 15.9 ± 2.1 | 2.9 ± 0.4 | 1.8 ± 0.4 | 11.2 ± 1.7 | 2.9 ± 0.4 | 14 ± 4 | 56 ± 7 |
